Source: patent US20260070945A1, “MACROCYCLIC IMMUNOMODULATORS” (Bristol-Myers Squibb Company, priority 2022, published 2026)
Where a SMILES comes first, the peptide text is derived from it. Bridges are numbered along the chain shown (N, C = ends). [ ]: non-standard residue; d: D form. The star is where a group is joined. Phe(3-CF3) = N[C@@H](Cc1cccc(C(F)(F)F)c1)C(=O)O; Ala(morpholin-4-yl) = N[C@@H](CN1CCOCC1)C(=O)O; Phe(4-COOH) = N[C@@H](Cc1ccc(C(=O)O)cc1)C(=O)O; Bip = N[C@@H](Cc1ccc(-c2ccccc2)cc1)C(=O)O; NH(CH2)12COOH = O=C(O)CCCCCCCCCCCCN*; Val(3-OH) = CC(C)(O)[C@H](N)C(=O)O; Cha = N[C@@H](CC1CCCCC1)C(=O)O; Cit = NC(=O)NCCC[C@H](N)C(=O)O; Carboxymethyl = O=C(O)C*; NMeA = CN[C@@H](C)C(=O)O; Dab = NCC[C@H](N)C(=O)O

Target: T1, PD-1/PD-L1 interaction (PE-labeled human PD-L1-Ig binding to Jurkat cell line over-expressing human PD-1) (Homo sapiens, UniProt Q15116)
T1 construct: expressed in transfected cells; host or cells: Jurkat
Test: Jurkat-PD-1 Cell Binding High-Content Screening Assay (CBA)
Conditions: Jurkat-hPD-1 cells, PE-labeled PD-L1-Ig 20 nM final; read-out: Jurkat HPD1 PDL1 IC50
How it was run: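 Jurkat cells overexpressing human PD-1 (8×10^3/well, DMEM + 10% FCS) preincubated with compound 2 h at 37 °C, then PE-labelled human PD-L1-Ig (20 nM final) for 1 h. Cells fixed in paraformaldehyde with Hoechst 33342; bound PD-L1 quantified by high-content imaging.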

T1 sequence (Q15116 25-288): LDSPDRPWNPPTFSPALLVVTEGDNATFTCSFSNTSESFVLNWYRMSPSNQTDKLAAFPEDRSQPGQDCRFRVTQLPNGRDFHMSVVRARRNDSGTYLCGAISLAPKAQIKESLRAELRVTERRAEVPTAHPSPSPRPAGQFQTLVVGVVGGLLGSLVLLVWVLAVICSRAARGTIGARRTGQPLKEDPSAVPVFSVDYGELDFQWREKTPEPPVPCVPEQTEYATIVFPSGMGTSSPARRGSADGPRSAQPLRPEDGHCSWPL

SMILES | IC50 [nM]
CC(C)C[C@H]1NC(=O)[C@H](C)N(C)C(=O)[C@H](CCCNC(N)=O)NC(=O)[C@H](Cc2ccc(-c3ccccc3)cc2)NC(=O)[C@H](Cc2ccc(C(=O)O)cc2)NC(=O)[C@H](Cc2cccc(C(F)(F)F)c2)NC(=O)[C@H](CC(=O)O)NC(=O)[C@H](Cc2ccc(OCC(=O)O)cc2)NC(=O)[C@H](Cc2ccc(C(=O)O)cc2)NC(=O)CSC[C@@H](C(=O)N[C@@H](CCN)C(=O)NCCCCCCCCCCCCC(=O)O)NC(=O)[C@H](Cc2c[nH]cn2)NC(=O)[C@H](C(C)(C)O)NC(=O)[C@H](CC2CCCCC2)NC(=O)[C@H](CCN)NC1=O [Example 1149] ({CH2CO}-[Phe(4-COOH)]Y(Carboxymethyl)D[Phe(3-CF3)][Phe(4-COOH)][Bip][Cit][NMeA][dL][Dab][Cha][Val(3-OH)]HC[Dab]-{NH(CH2)12COOH}; thioether N-14) | 15.2
CC(C)C[C@H]1NC(=O)[C@H](C)N(C)C(=O)[C@H](CCC(N)=O)NC(=O)[C@H](Cc2ccc(-c3ccccc3)cc2)NC(=O)[C@H](Cc2ccc(C(=O)O)cc2)NC(=O)[C@H](Cc2cccc(C(F)(F)F)c2)NC(=O)[C@H](CC(=O)O)NC(=O)[C@H](Cc2ccc(OCC(=O)O)cc2)NC(=O)[C@H](CN2CCOCC2)NC(=O)CSC[C@@H](C(=O)N[C@@H](CCN)C(=O)NCCCCCCCCCCCCC(=O)O)NC(=O)[C@H](CCC(=O)O)NC(=O)[C@H](C(C)C)NC(=O)[C@H](CC2CCCCC2)NC(=O)[C@H](CCN)NC1=O [Example 1151] ({CH2CO}-[Ala(morpholin-4-yl)]Y(Carboxymethyl)D[Phe(3-CF3)][Phe(4-COOH)][Bip]Q[NMeA][dL][Dab][Cha]VEC[Dab]-{NH(CH2)12COOH}; thioether N-14) | 6.1
CC(C)C[C@H]1NC(=O)[C@H](C)N(C)C(=O)[C@H](CCC(N)=O)NC(=O)[C@H](Cc2ccc(-c3ccccc3)cc2)NC(=O)[C@H](Cc2ccc(C(=O)O)cc2)NC(=O)[C@H](Cc2cccc(C(F)(F)F)c2)NC(=O)[C@H](CC(=O)O)NC(=O)[C@H](Cc2ccc(OCC(=O)O)cc2)NC(=O)[C@H](CN2CCOCC2)NC(=O)CSC[C@@H](C(=O)N[C@@H](CCN)C(=O)NCCCCCCCCCCCCC(=O)O)NC(=O)[C@H](CO)NC(=O)[C@H](C(C)(C)O)NC(=O)[C@H](CC2CCCCC2)NC(=O)[C@H](CCN)NC1=O [Example 1152] ({CH2CO}-[Ala(morpholin-4-yl)]Y(Carboxymethyl)D[Phe(3-CF3)][Phe(4-COOH)][Bip]Q[NMeA][dL][Dab][Cha][Val(3-OH)]SC[Dab]-{NH(CH2)12COOH}; thioether N-14) | 11.8
CC(=O)NCCCC[C@@H]1NC(=O)[C@H](C(C)(C)O)NC(=O)[C@H](CC2CCCCC2)NC(=O)[C@H](CCN)NC(=O)[C@@H](CC(C)C)NC(=O)[C@H](C)N(C)C(=O)[C@H](CCC(N)=O)NC(=O)[C@H](Cc2ccc(-c3ccccc3)cc2)NC(=O)[C@H](Cc2ccc(C(=O)O)cc2)NC(=O)[C@H](Cc2cccc(C(F)(F)F)c2)NC(=O)[C@H](CC(=O)O)NC(=O)[C@H](Cc2ccc(OCC(=O)O)cc2)NC(=O)[C@H](CN2CCOCC2)NC(=O)CSC[C@@H](C(=O)N[C@@H](CCN)C(=O)NCCCCCCCCCCCCC(=O)O)NC1=O [Example 1153] ({CH2CO}-[Ala(morpholin-4-yl)]Y(Carboxymethyl)D[Phe(3-CF3)][Phe(4-COOH)][Bip]Q[NMeA][dL][Dab][Cha][Val(3-OH)]K(Ac)C[Dab]-{NH(CH2)12COOH}; thioether N-14) | 12.9
CC(C)C[C@H]1NC(=O)[C@H](C)N(C)C(=O)[C@H](CCCNC(N)=O)NC(=O)[C@H](Cc2ccc(-c3ccccc3)cc2)NC(=O)[C@H](Cc2ccc(C(=O)O)cc2)NC(=O)[C@H](Cc2cccc(C(F)(F)F)c2)NC(=O)[C@H](CC(=O)O)NC(=O)[C@H](Cc2ccc(OCC(=O)O)cc2)NC(=O)[C@H](CN2CCOCC2)NC(=O)CSC[C@@H](C(=O)N[C@@H](CCN)C(=O)NCCCCCCCCCCCCC(=O)O)NC(=O)[C@H](CC(=O)O)NC(=O)[C@H](C(C)(C)O)NC(=O)[C@H](CC2CCCCC2)NC(=O)[C@H](CCN)NC1=O [Example 1154] ({CH2CO}-[Ala(morpholin-4-yl)]Y(Carboxymethyl)D[Phe(3-CF3)][Phe(4-COOH)][Bip][Cit][NMeA][dL][Dab][Cha][Val(3-OH)]DC[Dab]-{NH(CH2)12COOH}; thioether N-14) | 15.6
CC(C)C[C@H]1NC(=O)[C@H](C)N(C)C(=O)[C@H](CCCNC(N)=O)NC(=O)[C@H](Cc2ccc(-c3ccccc3)cc2)NC(=O)[C@H](Cc2ccc(C(=O)O)cc2)NC(=O)[C@H](Cc2cccc(C(F)(F)F)c2)NC(=O)[C@H](CC(=O)O)NC(=O)[C@H](Cc2ccc(OCC(=O)O)cc2)NC(=O)[C@H](CN2CCOCC2)NC(=O)CSC[C@@H](C(=O)N[C@@H](CCN)C(=O)NCCCCCCCCCCCCC(=O)O)NC(=O)[C@H](CO)NC(=O)[C@H](C(C)(C)O)NC(=O)[C@H](CC2CCCCC2)NC(=O)[C@H](CCN)NC1=O [Example 1156] ({CH2CO}-[Ala(morpholin-4-yl)]Y(Carboxymethyl)D[Phe(3-CF3)][Phe(4-COOH)][Bip][Cit][NMeA][dL][Dab][Cha][Val(3-OH)]SC[Dab]-{NH(CH2)12COOH}; thioether N-14) | 15.1

Further lines, results first:

IC50 [nM] | SMILES
16 | CC(C)C[C@H]1NC(=O)[C@H](C)N(C)C(=O)[C@H](CCC(N)=O)NC(=O)[C@H](Cc2ccc(-c3ccccc3)cc2)NC(=O)[C@H](Cc2ccc(C(=O)O)cc2)NC(=O)[C@H](Cc2cccc(C(F)(F)F)c2)NC(=O)[C@H](CC(=O)O)NC(=O)[C@H](Cc2ccc(OCC(=O)O)cc2)NC(=O)[C@H](CN2CCOCC2)NC(=O)CSC[C@@H](C(=O)N[C@@H](CCN)C(=O)NCCCCCCCCCCCCC(=O)O)NC(=O)[C@H](CC(=O)O)NC(=O)[C@H](C(C)(C)O)NC(=O)[C@H](CC2CCCCC2)NC(=O)[C@H](CCN)NC1=O [Example 1150] ({CH2CO}-[Ala(morpholin-4-yl)]Y(Carboxymethyl)D[Phe(3-CF3)][Phe(4-COOH)][Bip]Q[NMeA][dL][Dab][Cha][Val(3-OH)]DC[Dab]-{NH(CH2)12COOH}; thioether N-14)
8.6 | CC(C)C[C@H]1NC(=O)[C@H](C)N(C)C(=O)[C@H](CCCNC(N)=O)NC(=O)[C@H](Cc2ccc(-c3ccccc3)cc2)NC(=O)[C@H](Cc2ccc(C(=O)O)cc2)NC(=O)[C@H](Cc2cccc(C(F)(F)F)c2)NC(=O)[C@H](CC(=O)O)NC(=O)[C@H](Cc2ccc(OCC(=O)O)cc2)NC(=O)[C@H](CN2CCOCC2)NC(=O)CSC[C@@H](C(=O)N[C@@H](CCN)C(=O)NCCCCCCCCCCCCC(=O)O)NC(=O)[C@H](CCC(=O)O)NC(=O)[C@H](C(C)C)NC(=O)[C@H](CC2CCCCC2)NC(=O)[C@H](CCN)NC1=O [Example 1155] ({CH2CO}-[Ala(morpholin-4-yl)]Y(Carboxymethyl)D[Phe(3-CF3)][Phe(4-COOH)][Bip][Cit][NMeA][dL][Dab][Cha]VEC[Dab]-{NH(CH2)12COOH}; thioether N-14)
4.6 | CC(=O)NCCCC[C@@H]1NC(=O)[C@H](C(C)(C)O)NC(=O)[C@H](CC2CCCCC2)NC(=O)[C@H](CCN)NC(=O)[C@@H](CC(C)C)NC(=O)[C@H](C)N(C)C(=O)[C@H](CCCNC(N)=O)NC(=O)[C@H](Cc2ccc(-c3ccccc3)cc2)NC(=O)[C@H](Cc2ccc(C(=O)O)cc2)NC(=O)[C@H](Cc2cccc(C(F)(F)F)c2)NC(=O)[C@H](CC(=O)O)NC(=O)[C@H](Cc2ccc(OCC(=O)O)cc2)NC(=O)[C@H](CN2CCOCC2)NC(=O)CSC[C@@H](C(=O)N[C@@H](CCN)C(=O)NCCCCCCCCCCCCC(=O)O)NC1=O [Example 1157] ({CH2CO}-[Ala(morpholin-4-yl)]Y(Carboxymethyl)D[Phe(3-CF3)][Phe(4-COOH)][Bip][Cit][NMeA][dL][Dab][Cha][Val(3-OH)]K(Ac)C[Dab]-{NH(CH2)12COOH}; thioether N-14)
